Measured values reported in patent US9353067B2, “Heterocyclic compounds and uses thereof in the treatment of sexual disorders” (ATIR Holding S.A., priority 2011, dated 2016).
“And” between values parts separate entries of the source, which are not always exact repeats. Equal entries are not always repeated. Where two headings read alike, the source gives them in different places.

Legend:
[1] = Pharmacokinetics of R-55 following intravenous administration in pigs; assay type: in vivo, White Landrace female pigs; conditions: 0.2 mg/kg intravenous
Procedure: R-55 and related compounds were assayed in the plasma samples using a Waters (USA) Alliance high performance liquid chromatograph coupled with a Waters Micromass ZQ quadruple mass spectrometer (in ESI+ mode) as a detector with Waters Empower chromatographic and mass spectrometric software for chromatographic data acquisition, processing and instrument control.
The tested compound was extracted from plasma using dichloromethane, followed by concentration by evaporating the extract and dissolution in a low volume chromatographic mobile phase.
The instrument was calibrated using plasma spiked with various concentrations of the tested compound. Enrofloxacin (m/z=360.4) was used as an internal standard.
In order to investigate the pharmacokinetics of R-55, the presence of R-55 in plasma was measured following intravenous administration of R-55 in pigs.
White Landrace female pigs were acclimatized for 2days prior to treatment. 3 pigs were administered 0.2 mg/kg R-55 by intravenous injection at a dose volume of 0.2 ml/kg. Blood samples were withdrawn from each pig via a jugular vein catheter at the following time points: immediately prior to injection (t=0), and 5 minutes, 10 minutes, 15 minutes, 30 minutes, 45 minutes, 60 minutes, 90 minutes, 2 hours, 3 hours, 4 hours, and 6 hours post-injection. All samples were collected in a K3EDTA tube (Greiner). Blood samples were stored on crushed ice after collection. Plasma was separated by centrifugation (10 minutes at 3000 rotations per minute), within two hours post-sampling. Each plasma sample was divided into two aliquots before freezing. Plasma samples were then stored at −20° C. until being dispatched for LCMS analysis.
Clinical observations were performed during the six hours following application.
Pharmacokinetic analysis was performed using the WINNONLIN version 5.0 (Pharsight, USA) computerized software. Area under curves of concentration vs. time (AUC) were calculated using the log linear trapezoidal rule. Area under curves were determined for the time period for which concentrations were measured, i.e., t=0 to 6 hours (AUCall), and for an infinite time period (AUCINF), as determined by extrapolation of the curve to t=∞.

[2] = target: Serotonin 5-HT1A receptor (Homo sapiens (Human), UniProt P08908); experiment: Competitive binding, 8-OH-DPAT radioligand
Serotonin 5-HT1A receptor, sequence (P08908 whole entry): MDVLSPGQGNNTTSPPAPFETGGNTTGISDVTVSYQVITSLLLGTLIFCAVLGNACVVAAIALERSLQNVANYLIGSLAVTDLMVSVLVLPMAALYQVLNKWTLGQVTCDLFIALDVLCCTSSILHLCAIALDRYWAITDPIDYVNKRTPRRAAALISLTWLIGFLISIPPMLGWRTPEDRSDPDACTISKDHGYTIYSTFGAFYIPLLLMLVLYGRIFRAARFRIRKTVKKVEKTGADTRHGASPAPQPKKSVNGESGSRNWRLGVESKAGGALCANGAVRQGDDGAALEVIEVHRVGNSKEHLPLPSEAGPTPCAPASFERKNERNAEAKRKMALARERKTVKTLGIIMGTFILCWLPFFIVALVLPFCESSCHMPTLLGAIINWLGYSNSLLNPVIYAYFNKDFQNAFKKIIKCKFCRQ
Procedure: R-55 (which comprises a 3-hydroxyphenyl moiety) and the structurally related compounds N-108 (2-{[4-(2-ethoxyphenyl)piperazin-1-yl]methyl}quinazolin-4(3H)-one) and B-39 (7-chloro-2-((5,6-dihydro-4-(2-methoxyphenyl)pyridin-1(2H)-yl)methyl)quinazolin-4(3H)-one) were assayed for competitive binding to a variety of receptors, including D4.4 type dopamine receptor, in order to assess their specificity for D4.4 dopamine receptors.
The receptors were expressed as human recombinant proteins in CHO cells, except for adrenergic α1 and α2 receptors which were expressed in Wistar rat brain and cerebral cortex cells, respectively, and melanocortin MC4 receptor which was expressed in human recombinant HEK-293 cells. Binding was determined using the following radioligands in the presence of various concentrations of the tested compound:
1.5 nM 8-OH-DPAT for serotonin 5-HT1A receptor, and
The binding assays were performed in accordance with procedures described in the literature (Greengrass & Bremner, 1979; Boyajian & Leslie, 1987; Broadhurst, 1988; Lewis, 2001; Sutton, 1995; Dearry, 1990; Zhou, 1990; Grandy, 1989; Hayes, 1992; Sokoloff, 1990; Van Tol, 1991; Van Tol 1992; Sunahara, 1991; Weinshank, 1991; Schioth, 1996; Schioth 1997; Martin & Humphrey, 1994; May, 2003; Wolf & Schutz, 1997).

O=c1[nH]c(CN2CCN(c3cccc(O)c3)CC2)nc2ccccc12 [Compound R-55, 2-((4-(3-hydroxyphenyl)piperazin-1-yl)methyl)quinazolin-4-one]
Time to elimination from the bloodstream after administration [1]: ≤ 30 min
R-55 plasma concentration ([1]; 0 minutes (immediately prior to injection), individual animals #1-#3): 0 ng/mL
R-55 plasma concentration ([1]; 5 minutes after injection, individual animals #1-#3): 122.1 ng/mL and 142.2 ng/mL
R-55 plasma concentration ([1]; 10 minutes after injection, individual animals #1-#3): 112.9 ng/mL and 83.0 ng/mL
R-55 plasma concentration ([1]; 15 minutes after injection, individual animals #1-#3): 30.4 ng/mL and 76.8 ng/mL and 52.8 ng/mL
R-55 plasma concentration ([1]; 30 minutes after injection, individual animals #1-#3): 0 ng/mL and 24.9 ng/mL and 22.3 ng/mL
R-55 detection in plasma ([1]; 45 minutes or more following administration): No R-55 was detected
AUCINF ([1]; extrapolation to infinite time, individual animals): 2501.3 ng·min/mL and 2132.2 ng·min/mL
Clearance ([1]; individual animals): 80.0 mL/min/kg and 93.8 mL/min/kg
Cmax - maximal concentration ([1]; individual animals): 122.1 ng/mL and 142.2 ng/mL
Mean residence time ([1]; individual animals): 17.0 min and 15.8 min
T1/2 - half-life ([1]; individual animals): 8.67 min and 10.34 min and 9.67 min
Volume of distribution ([1]; individual animals): 1.193 L/kg and 1.3081 L/kg
Volume of distribution at steady state ([1]; individual animals): 1.3589 L/kg and 1.5093 L/kg
Clinical observations (side effects) ([1]; six hours following application): No abnormal side effects were observed
AUCall ([1]; t=0 to 6 hours, individual animals): 2129.0 ng·min/mL and 1821.3 ng·min/mL
concentration at 0 min ([1]; female, White Landrace, pig, plasma, iv, 0.2 mg/kg, 0 minutes (immediately prior to injection), individual animals #1-#3): 0 ng/mL
concentration at 5 min ([1]; female, White Landrace, pig, plasma, iv, 0.2 mg/kg, 5 minutes after injection, individual animals #1-#3): 158 ng/mL
concentration at 10 min ([1]; female, White Landrace, pig, plasma, iv, 0.2 mg/kg, 10 minutes after injection, individual animals #1-#3): 86.7 ng/mL
AUC(0-inf) ([1]; female, White Landrace, pig, plasma, iv, 0.2 mg/kg, extrapolation to infinite time, individual animals): 32.1 ng·h/mL
Clearance ([1]; female, White Landrace, pig, plasma, iv, 0.2 mg/kg, individual animals, read-out: Clearance): 104 mL/min/kg
Cmax ([1]; female, White Landrace, pig, plasma, iv, 0.2 mg/kg, individual animals, read-out: Cmax - maximal concentration): 158 ng/mL
MRT ([1]; female, White Landrace, pig, plasma, iv, 0.2 mg/kg, individual animals, read-out: Mean residence time (converted)): 14.5 min
half-life ([1]; female, White Landrace, pig, plasma, iv, 0.2 mg/kg, individual animals, read-out: T1/2 - half-life): 9 to 10 min
Vd ([1]; female, White Landrace, pig, plasma, iv, 0.2 mg/kg, individual animals, read-out: Volume of distribution): 1.3 L/kg
Vd ([1]; female, White Landrace, pig, plasma, iv, 0.2 mg/kg, individual animals, read-out: Volume of distribution at steady state): 1.51 L/kg
AUC ([1]; female, White Landrace, pig, plasma, iv, 0.2 mg/kg, t=0 to 6 hours, individual animals): 27.9 ng·h/mL
Competitive binding (%) at 5 μM of tested compound [2]: 7%
